Measured values published in ChEMBL document CHEMBL3352542, “Synthesis, biological evaluation and molecular modeling study of 2-(1,3,4-thiadiazolyl-thio and 4-methyl-thiazolyl-thio)-quinazolin-4-ones as a new class of DHFR inhibitors” (Bioorg Med Chem Lett, 2014).
Activity calls are given as the source filed them. The rule behind the calls is not given here.

Experiments:
[1] = system: A498; test: Growth inhibition of human A498 cells at 10 uM after 48 hrs; type: functional; conditions: A498, 48 h, read-out: GI
[2] = Growth inhibition of human BT549 cells at 10 uM after 48 hrs; type: functional; conditions: BT-549, 48 h, read-out: GI
[3] = system: Candida albicans; test: Antimicrobial activity against Candida albicans assessed as inhibition zone at 200 ug/disk after 24 hrs by disc-diffusion method; type: functional; conditions: read-out: IZ
[4] = Growth inhibition of human UACC62 cells at 10 uM after 48 hrs; type: functional; conditions: UACC-62, 48 h, read-out: GI
[5] = Growth inhibition of human OVCAR8 cells at 10 uM after 48 hrs; type: functional; conditions: OVCAR-8, 48 h, read-out: GI
[6] = system: MDA-MB-231; test: Growth inhibition of human MDA-MB-231 cells at 10 uM after 48 hrs; type: functional; conditions: MDA-MB-231, 48 h, read-out: GI
[7] = system: Pseudomonas aeruginosa; test: Antimicrobial activity against Pseudomonas aeruginosa assessed as inhibition zone at 200 ug/disk after 24 hrs by disc-diffusion method; type: functional; conditions: read-out: IZ
[8] = Growth inhibition of human HCT15 cells at 10 uM after 48 hrs; type: functional; conditions: HCT-15, 48 h, read-out: GI
[9] = system: A549; test: Growth inhibition of human A549 cells at 10 uM after 48 hrs; type: functional; conditions: A549, 48 h, read-out: GI
[10] = Growth inhibition of human SF295 cells at 10 uM after 48 hrs; type: functional; conditions: SF-295, 48 h, read-out: GI
[11] = Growth inhibition of human UO31 cells at 10 uM after 48 hrs; type: functional; conditions: UO-31, 48 h, read-out: GI
[12] = Growth inhibition of human RPMI8226 cells at 10 uM after 48 hrs; type: functional; conditions: RPMI-8226, 48 h, read-out: GI
[13] = Growth inhibition of human NCI-ADR-RES cells at 10 uM after 48 hrs; type: functional; conditions: read-out: GI
[14] = Growth inhibition of human LOXIMVI cells at 10 uM after 48 hrs; type: functional; conditions: LOX IMVI, read-out: GI
[15] = system: K562; test: Growth inhibition of human K562 cells at 10 uM after 48 hrs; type: functional; conditions: K562, 48 h, read-out: GI
[16] = system: 786-0; test: Growth inhibition of human 786-0 cells at 10 uM after 48 hrs; type: functional; conditions: 786-0, 48 h, read-out: GI
[17] = Growth inhibition of human OVCAR5 cells at 10 uM after 48 hrs; type: functional; conditions: OVCAR-5, 48 h, read-out: GI
[18] = system: KM12; test: Growth inhibition of human KM12 cells at 10 uM after 48 hrs; type: functional; conditions: KM12, 48 h, read-out: GI
[19] = system: U-251; test: Growth inhibition of human U251 cells at 10 uM after 48 hrs; type: functional; conditions: U-251, 48 h, read-out: GI
[20] = system: Bacillus subtilis; test: Antimicrobial activity against Bacillus subtilis assessed as inhibition zone at 200 ug/disk after 24 hrs by disc-diffusion method; type: functional; conditions: read-out: IZ
[21] = system: CAKI-1; test: Growth inhibition of human CAKI-1 cells at 10 uM after 48 hrs; type: functional; conditions: CAKI-1, 48 h, read-out: GI
[22] = biological target: T1, Dihydrofolate reductase (Bos taurus, UniProt P00376); test: Inhibition of bovine liver DHFR
T1 sequence (P00376 whole entry): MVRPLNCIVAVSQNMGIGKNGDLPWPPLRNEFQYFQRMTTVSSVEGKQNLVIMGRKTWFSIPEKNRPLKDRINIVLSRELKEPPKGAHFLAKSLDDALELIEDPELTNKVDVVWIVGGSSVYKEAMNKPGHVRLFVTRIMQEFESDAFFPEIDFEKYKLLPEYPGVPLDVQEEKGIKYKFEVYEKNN

[23] = system: SK-MEL-5; test: Growth inhibition of human SK-MEL-5 cells at 10 uM after 48 hrs; type: functional; conditions: SK-MEL-5, 48 h, read-out: GI
[24] = system: SNB-19; test: Growth inhibition of human SNB19 cells at 10 uM after 48 hrs; type: functional; conditions: SNB-19, 48 h, read-out: GI
[25] = system: SNB-75; test: Growth inhibition of human SNB75 cells at 10 uM after 48 hrs; type: functional; conditions: SNB-75, 48 h, read-out: GI
[26] = Growth inhibition of human HCT116 cells at 10 uM after 48 hrs; type: functional; conditions: HCT-116, 48 h, read-out: GI
[27] = system: Escherichia coli; test: Antimicrobial activity against Escherichia coli assessed as inhibition zone at 200 ug/disk after 24 hrs by disc-diffusion method; type: functional; conditions: read-out: IZ
[28] = Growth inhibition of human OVCAR4 cells at 10 uM after 48 hrs; type: functional; conditions: OVCAR-4, 48 h, read-out: GI
[29] = Growth inhibition of human HOP92 cells at 10 uM after 48 hrs; type: functional; conditions: HOP-92, 48 h, read-out: GI
[30] = system: SF-268; test: Growth inhibition of human SF268 cells at 10 uM after 48 hrs; type: functional; conditions: SF-268, 48 h, read-out: GI
[31] = Growth inhibition of human PC3 cells at 10 uM after 48 hrs; type: functional; conditions: PC-3, 48 h, read-out: GI
[32] = Growth inhibition of human RXF393 cells at 10 uM after 48 hrs; type: functional; conditions: RXF 393, 48 h, read-out: GI
[33] = system: Staphylococcus aureus; test: Antimicrobial activity against Staphylococcus aureus assessed as inhibition zone at 200 ug/disk after 24 hrs by disc-diffusion method; type: functional; conditions: read-out: IZ
[34] = Growth inhibition of human Hs 578T cells at 10 uM after 48 hrs; type: functional; conditions: read-out: GI
[35] = system: Bacillus subtilis; test: Antimicrobial activity against Bacillus subtilis assessed as inhibition of visible growth after 24 hrs by disc-diffusion method; type: functional, organism-based
[36] = system: MDA-MB-435; test: Growth inhibition of human MDA-MB-435 cells at 10 uM after 48 hrs; type: functional; conditions: MDA-MB-435, 48 h, read-out: GI
[37] = system: MCF7; test: Growth inhibition of human MCF7 cells at 10 uM after 48 hrs; type: functional; conditions: MCF7, 48 h, read-out: GI
[38] = Growth inhibition of human UACC257 cells at 10 uM after 48 hrs; type: functional; conditions: UACC-257, 48 h, read-out: GI
[39] = system: HOP-62; test: Growth inhibition of human HOP62 cells at 10 uM after 48 hrs; type: functional; conditions: HOP-62, 48 h, read-out: GI
[40] = system: Staphylococcus aureus; test: Antimicrobial activity against Staphylococcus aureus assessed as inhibition of visible growth after 24 hrs by disc-diffusion method; type: functional, organism-based
[41] = system: Escherichia coli; test: Antimicrobial activity against Escherichia coli assessed as inhibition of visible growth after 24 hrs by disc-diffusion method; type: functional, organism-based
[42] = system: T47D; test: Growth inhibition of human T47D cells at 10 uM after 48 hrs; type: functional; conditions: read-out: GI

SMILES: COc1ccc(-n2c(Sc3sc(N)nc3C)nc3ccc(C)cc3c2=O)cc1
- inhibition of growth at 10 µM [1]: 24.6%
- inhibition of growth at 10 µM [2]: 20.6%
- zone of inhibition at 200 µg/disc [3]: 8 mm
- inhibition of growth at 10 µM [4]: 15.4%
- inhibition of growth at 10 µM [5]: 13.4%
- inhibition of growth at 10 µM [6]: 25%
- zone of inhibition at 200 µg/disc [7]: 8 mm
- inhibition of growth at 10 µM [8]: 25.3%
- inhibition of growth at 10 µM [9]: 15.6%
- inhibition of growth at 10 µM [10]: 10.6%
- inhibition of growth at 10 µM [11]: 26.2%
- inhibition of growth at 10 µM [12]: 16.2%
- inhibition of growth at 10 µM [13]: 11.3%
- inhibition of growth at 10 µM [14]: 11%
- inhibition of growth at 10 µM [15]: 13%
- inhibition of growth at 10 µM [16]: 12%
- inhibition of growth at 10 µM [17]: 17.9%
- inhibition of growth at 10 µM [18]: 19.4%
- inhibition of growth at 10 µM [19]: 15.7%
- zone of inhibition at 200 µg/disc [20]: 8 mm
- inhibition of growth at 10 µM [21]: 11.5%
- IC50 [22]: 7 µM
- inhibition of growth at 10 µM [23]: 15.7%
- inhibition of growth at 10 µM [24]: 15.5%
- inhibition of growth at 10 µM [25]: 11.9%
- inhibition of growth at 10 µM [26]: 19.1%
- zone of inhibition at 200 µg/disc [27]: 8 mm
- inhibition of growth at 10 µM [28]: 12.9%
- inhibition of growth at 10 µM [29]: 42.3%
- inhibition of growth at 10 µM [30]: 10.6%
- inhibition of growth at 10 µM [31]: 15.9%
- inhibition of growth at 10 µM [32]: 28%
- zone of inhibition at 200 µg/disc [33]: 8 mm

SMILES: Nc1nnc(Sc2nc3ccc(Cl)cc3c(=O)n2-c2ccc(Cl)cc2)s1
- inhibition of growth at 10 µM [1]: 30.6%
- zone of inhibition at 200 µg/disc [3]: 8 mm
- inhibition of growth at 10 µM [34]: 13.3%
- zone of inhibition at 200 µg/disc [7]: 12 mm
- inhibition of growth at 10 µM [8]: 12.7%
- inhibition of growth at 10 µM [9]: 11.1%
- inhibition of growth at 10 µM [10]: 20.6%
- inhibition of growth at 10 µM [11]: 24.6%
- inhibition of growth at 10 µM [12]: 12.1%
- inhibition of growth at 10 µM [16]: 15.4%
- Activity [35]: Active
- inhibition of growth at 10 µM [19]: 11%
- zone of inhibition at 200 µg/disc [20]: 20 mm
- inhibition of growth at 10 µM [36]: 10.8%
- IC50 [22]: 1 µM
- inhibition of growth at 10 µM [23]: 10.9%
- inhibition of growth at 10 µM [37]: 12.7%
- inhibition of growth at 10 µM [38]: 12.3%
- inhibition of growth at 10 µM [39]: 16.7%
- zone of inhibition at 200 µg/disc [27]: 16 mm
- Activity [40]: Active
- inhibition of growth at 10 µM [29]: 53.7%
- inhibition of growth at 10 µM [31]: 14.1%
- Activity [41]: Active
- zone of inhibition at 200 µg/disc [33]: 18 mm
- inhibition of growth at 10 µM [42]: 29.2%
